In publication PMC10545747, “Development of cyclopeptide inhibitors of cGAS targeting protein-DNA interaction and phase separation” (Nature Communications, 2023):
Several values for one entry are separate records, joined by “and”; a condition that tells them apart may be missing. Equal entries are not always repeated. Square brackets hold non-standard residues; d marks the D form. Peptide text beside a SMILES is read from it.

Legend:
THP1 cells = assay: ELISA of IFN-β and CXCL10 after HSV-1 infection; format: cell-based, human
Experimental: THP1 cells were seeded into 96-well plates, and cell culture supernatants were collected and analyzed by ELISA kits for human IFNβ levels (R&D Systems, Cat# DY814-05) and human CXCL10 levels (R&D Systems, Cat# DY266-05) according to the manufacturer’s instructions. Mice serum was collected and analyzed by ELISA kits for mouse IFNβ levels (R&D Systems, Cat# DY8234-05) and mouse CXCL10 levels (R&D Systems, Cat# DY466-05) according to the manufacturer’s protocols.

[1] = target: T1, recombinant human cGAS enzyme (hcGAS-ΔN, residues 147–522) (Homo sapiens, UniProt Q8N884); assay: RNA-based fluorescent biosensor assay of cGAS activity (2',3'-cGAMP formation), in vitro screening; format: biochemical
T1 construct: N-terminally truncated human cGAS (hcGAS-ΔN, residues 147–522); 6xHis-SUMO (N, cleaved yes); made in house; host or cells: Escherichia coli BL21 (DE3)
T1 sequence (Q8N884 147-522, stated change not applied): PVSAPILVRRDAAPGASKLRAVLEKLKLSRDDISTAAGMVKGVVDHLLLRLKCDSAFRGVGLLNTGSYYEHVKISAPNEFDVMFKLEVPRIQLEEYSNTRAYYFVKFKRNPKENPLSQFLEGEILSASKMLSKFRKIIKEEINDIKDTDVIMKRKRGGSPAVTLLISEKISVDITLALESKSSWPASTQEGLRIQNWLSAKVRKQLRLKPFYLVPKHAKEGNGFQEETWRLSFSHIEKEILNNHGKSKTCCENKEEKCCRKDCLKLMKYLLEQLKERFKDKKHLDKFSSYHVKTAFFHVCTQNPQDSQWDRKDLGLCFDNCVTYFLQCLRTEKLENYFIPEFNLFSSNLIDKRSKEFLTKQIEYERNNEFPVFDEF
Outline: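 In 40 mM Tris-HCl pH 7.5, 100 mM NaCl, 10 mM MgCl2, ISD (0.5 μM) started the reaction with hcGAS-ΔN (1.5 μM), ATP (1 mM) and GTP (1 mM). Incubation was 2 h at 37 °C, with compounds screened at 20 μM. 2',3'-cGAMP formed was quantified with an RNA-based fluorescent biosensor.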

## CC(C)C[C@@H]1NC(=O)[C@H](CCCNC(=N)N)NC(=O)[C@H](C(C)C)NC(=O)[C@@H]2CCCN2C(=O)[C@@H](Cc2ccccc2)NC(=O)[C@H](CC(C)C)NC(=O)[C@H](CCCNC(=N)N)NC(=O)[C@H](C(C)C)NC(=O)[C@H](C)NC(=O)[C@@H](Cc2ccccc2)NC1=O [XQ2, Cyclo (LfAVRLfPVR)] (cyclo(L[dF]AVRL[dF]PVR))
THP1 cells; 10 μM
  production of IFN-β and CXCL10 upon HSV-1 infection: significantly inhibited the production of IFN-β and CXCL10
THP1 cells; HSV-1 1×10^5 pfu 24 h, XQ2 10 μM
  IFN-β protein, ELISA, Fig. 5a: 82.1785 and 88.212 and 94.6416
THP1 cells; HSV-1 2×10^4 pfu 24 h, XQ2 10 μM
  CXCL10 protein, ELISA, Fig. 5b: 81.286 and 72.3045 and 81.612
THP1 cells; HSV-1 5×10^4 pfu 24 h, XQ2 10 μM
  CXCL10 protein, ELISA, Fig. 5b: 1196.79 and 1171.64 and 1198.54
[1]; 20 μM, replicate values
  Remaining activity (%), Fig. 1a source data: 59.4781% and 59.6712%
[1]; 20 μM, replicate values, read-out: Remaining activity (%), Fig. 1a source data
  remaining activity at 20 µM: 59.5%
[1]; peptides screened at 20 μM, Supplementary Table 1 / Fig. S5b, 20 µM
  Inhibition %: ≥ 40%
[1]; peptides screened at 20 μM, Supplementary Table 1 / Fig. S5b, read-out: Inhibition %
  inhibition at 20 µM: 40%
